Measurements as given in patent US7291641B2, “Derivatives of heterocycles with 5 members, their preparation and their use as medicaments” (Societe de Conseils de Recherches et d'Applications …, priority 1999, dated 2007).

| melting point | SMILES |
| --- | --- |
| 170 to 172 °C | CN(Cc1nc(-c2ccccc2)c(-c2ccccc2)[nH]1)C(=O)OC(C)(C)C [Example 156, tert-butyl (4,5-diphenyl-1H-imidazol-2-yl)methyl(methyl)carbamate] |
| 144 to 146 °C | CC(C)(C)OC(=O)NCc1nc(-c2ccccc2)c(-c2ccccc2)[nH]1 [Example 157, tert-butyl (4,5-diphenyl-1H-imidazol-2-yl)methylcarbamate] |
| 160 to 162 °C | c1ccc(CNCc2nc(-c3ccccc3)c(-c3ccccc3)[nH]2)cc1 [Example 163, N-benzyl(4,5-diphenyl-1H-imidazol-2-yl)methanamine] |
| 174 to 176 °C | c1ccc(CNCCc2nc(-c3ccc(-c4ccccc4)cc3)c[nH]2)cc1 [Example 164, N-benzyl-2-(4-[1,1′-biphenyl]-4-yl-1H-imidazol-2-yl)ethanamine] |
| 233 to 238 °C | c1ccc(CN[C@H](CC2CCCCC2)c2nc(-c3ccc(-c4ccccc4)cc3)c[nH]2)cc1 [Example 169, (1R)-N-benzyl-1-(4-[1,1′-biphenyl]-4-yl-1H-imidazol-2-yl)-2-cyclohexylethanamine] |
| 210 to 213 °C | c1ccc(CC[C@@H](NCc2ccccc2)c2nc(-c3ccc(-c4ccccc4)cc3)c[nH]2)cc1 [Example 170, (1R)-N-benzyl-1-(4-[1,1′-biphenyl]-4-yl-1H-imidazol-2-yl)-3-phenyl-1-propanamine] |
| 98 to 99 °C | CC(C)(C)NC(=S)NCCc1nc(-c2ccc(-c3ccccc3)cc2)c[nH]1 [Example 172, 4-[2-(2-{[(tert-butylamino)carbothioyl]amino}ethyl)-1H-imidazol-4-yl]-1,1′-biphenyl] |
| 152 to 154 °C | CCCCCCNCCc1nc(-c2ccc(-c3ccccc3)cc2)c[nH]1 [Example 176, N-[2-(4-[1,1′-biphenyl]-4-yl-1H-imidazol-2-yl)ethyl]-1-hexanamine] |
| 195 to 196 °C | CC(C)(C)NC(=O)NCCc1nc(-c2ccc(-c3ccccc3)cc2)c[nH]1 [Example 177, 4-[2-(2-{[(tert-butylamino)carbonyl]amino}ethyl)-1H-imidazol-4-yl]-1,1′-biphenyl] |
| 254 to 256 °C | c1ccc(CNCCCc2nc(-c3ccc(-c4ccccc4)cc3)c[nH]2)cc1 [Example 178, N-benzyl-3-(4-[1,1′-biphenyl]-4-yl-1H-imidazol-2-yl)-1-propanamine] |
| 136 to 138 °C | CC[C@H](NC(=O)OC(C)(C)C)c1nc(-c2ccccc2)c(-c2ccccc2)[nH]1 [Example 197, tert-butyl (1S)-1-(4,5-diphenyl-1H-imidazol-2-yl)propylcarbamate] |
| 220 to 222 °C | CC[C@H](NCc1ccccc1)c1nc(-c2ccc(-c3ccccc3)cc2)c[nH]1 [Example 198, (1S)-N-benzyl-1-(4-[1,1′-biphenyl]4-yl-1H-imidazol-2-yl)-1-propanamine] |
| 162 to 164 °C | CC(C)(C)COC(=O)NCCc1nc(-c2ccc(-c3ccccc3)cc2)c[nH]1 [Example 203, 4-[2-(2-{[(neopentyloxy)carbonyl]amino}ethyl)-1H-imidazol-4-yl]-1,1′-biphenyl] |
| 182 to 184 °C | CC[C@H](NCc1ccccc1)c1nc(-c2ccccc2)c(-c2ccccc2)[nH]1 [Example 204, (1S)-N-benzyl-1-(4,5-diphenyl-1H-imidazol-2-yl)-1-propanamine] |
| 156 to 158 °C | CCC[C@@H](NC(=O)OC(C)(C)C)c1nc(-c2ccccc2)c[nH]1 [Example 207, tert-butyl (1R)-1-(4-phenyl-1H-imidazol-2-yl)butylcarbamate] |
| 78.6 °C | CCC[C@@H](NCc1ccccc1)c1nc(-c2ccc(-c3ccccc3)cc2)c[nH]1 [Example 213, (1R)-N-benzyl-1-(4-[1,1′-biphenyl]-4-yl-1H-imidazol-2-yl)-1-butanamine] |
| 218 to 220 °C | CCC[C@@H](NCc1ccccc1)c1nc(-c2ccccc2)c[nH]1 [Example 214, (1R)-N-benzyl-1-(4-phenyl-1H-imidazol-2-yl)-1-butanamine] |

| melting point | SMILES |
| --- | --- |
| 134 to 136 °C | O=C(NCCc1nc(-c2ccc(-c3ccccc3)cc2)c[nH]1)OCc1ccccc1 [Example 237, 4-[2-(2-{[(benzyloxy)carbonyl]amino}ethyl)-1H-imidazol-4-yl]-1,1′-biphenyl] |
| 240 to 242 °C | c1ccc(-c2c[nH]c([C@@H](NC3CCCCC3)C3CCCCC3)n2)cc1 [Example 243, N-[(S)-cyclohexyl(4-phenyl-1H-imidazol-2-yl)methyl]-cyclohexanamine] |
| 177.2 °C | COC(=O)NCCc1nc(-c2ccc(-c3ccccc3)cc2)c[nH]1 [Example 244, 4-(2-{2-[(methoxycarbonyl)amino]ethyl}-1H-imidazol-4-yl)-1,1′-biphenyl] |
| 141.2 °C | CCCOC(=O)NCCc1nc(-c2ccc(-c3ccccc3)cc2)c[nH]1 [Example 245, 4-(2-{2-[(propoxycarbonyl)amino]ethyl}-1H-imidazol-4-yl)-1,1′-biphenyl] |
| 132.5 °C | CCOC(=O)NCCc1nc(-c2ccc(-c3ccccc3)cc2)c[nH]1 [Example 246, 4-(2-{2-[(ethoxycarbonyl)amino]ethyl}-1H-imidazol-4-yl)-1,1′-biphenyl] |
| 148 to 152 °C | CC(C)(NC(=O)OCc1ccccc1)c1nc(-c2ccc(-c3ccccc3)cc2)c[nH]1 [Example 247, 4-[2-(1-{[(benzyloxy)carbonyl]amino}-1-methylethyl)-1H-imidazol-4-yl]-1,1′-biphenyl] |
| 207 to 210 °C | c1ccc(-c2ccc(-c3c[nH]c(CCNC4CCCCC4)n3)cc2)cc1 [Example 249, N-[2-(4-[1,1′-biphenyl]4-yl-1H-imidazol-2-yl)ethyl]-cyclohexanamine] |
| 87 °C | CCCCOC(=O)NCCc1nc(-c2ccc(F)cc2)c[nH]1 [Example 251, butyl 2-[4-(4-fluorophenyl)-1H-imidazol-2-yl]ethylcarbamate] |
| 202 to 204 °C | Brc1cccc(-c2c[nH]c(CNC3CCCCC3)n2)c1 [Example 254, N-{[4-(3-bromophenyl)-1H-imidazol-2-yl]methyl}cyclohexanamine] |
| 116.5 to 116.8 °C | CCCCCCOC(=O)NCCc1nc(-c2ccc(-c3ccccc3)cc2)c[nH]1 [Example 255, hexyl 2-(4-[1,1′-biphenyl]-4-yl-1H-imidazol-2-yl)ethylcarbamate] |
| 210 to 212 °C | CC(C)N[C@H](c1nc(-c2ccc(F)cc2)c[nH]1)C1CCCCC1 [Example 261, N-{(S)-cyclohexyl[4-(4-fluorophenyl)-1H-imidazol-2-yl]methyl}-2-propanamine] |
| 200 to 202 °C | Fc1ccc(-c2c[nH]c([C@@H](NC3CCC3)C3CCCCC3)n2)cc1F [Example 262, N-{(S)-cyclohexyl[4-(3,4-difluorophenyl)-1H-imidazol-2-yl]methyl}cyclobutanamine] |
| 138.4 °C | CCCCOC(=O)NCCc1nc(-c2ccc(C3CCCCC3)cc2)c[nH]1 [Example 268, butyl 2-[4-(4-cyclohexylphenyl)-1H-imidazol-2-yl]ethylcarbamate] |
| 150 °C | O=C(NCCc1nc(-c2ccc(-c3ccccc3)cc2)c[nH]1)OC1CCCCC1 [Example 269, 4-[2-(2-{[(cyclohexyloxy)carbonyl]amino}ethyl)-1H-imidazol-4-yl]-1,1′-biphenyl] |
| 136 to 140 °C | FC(F)(F)Oc1ccc(-c2c[nH]c([C@@H](NC3CCC3)C3CCCCC3)n2)cc1 [Example 270, N-((S)-cyclohexyl{4-[4-(trifluoromethoxy)phenyl]-1H-imidazol-2-yl}methyl)-cyclobutanamine] |
| 140.5 °C | O=C(NCCc1nc(-c2ccc(-c3ccccc3)cc2)c[nH]1)OC1CCCC1 [Example 271, 4-[2-(2-{[(cyclopentyloxy)carbonyl]amino}ethyl)-1H-imidazol-4-yl]-1,1′-biphenyl] |

| SMILES | melting point |
| --- | --- |
| CC(C)(C)OC(=O)N(Cc1ccccc1)Cc1nc(-c2ccc(-c3ccccc3)cc2)c[nH]1 [Example 165, 4-(2-{[benzyl(tert-butoxycarbonyl)amino]methyl}-1H-imidazol-4-yl)-1,1′-biphenyl] | 130 to 132 °C |
| CC(C)(C)OC(=O)N[C@H](CCc1ccccc1)c1nc(-c2ccc(-c3ccccc3)cc2)c[nH]1 [Example 167, 4-(2-{(1R)-1-[(tert-butoxycarbonyl)amino]-3-phenylpropyl}-1H-imidazol-4-yl)-1,1′-biphenyl] | 154 to 156 °C |
| CC(C)(C)OC(=O)NCCCc1nc(-c2ccc(-c3ccccc3)cc2)c[nH]1 [Example 171, 4-(2-{3-[(tert-butoxycarbonyl)amino]propyl}-1H-imidazol-4-yl)-1,1′-biphenyl] | 145 to 146 °C |
| CC[C@H](NC(=O)OC(C)(C)C)c1nc(-c2ccc(-c3ccccc3)cc2)c[nH]1 [Example 194, 4-(2-{(1S)-1-[(tert-butoxycarbonyl)amino]propyl}-1H-imidazol-4-yl)-1,1′-biphenyl] | 138 to 140 °C |
| CCC[C@@H](NC(=O)OC(C)(C)C)c1nc(-c2ccc(-c3ccccc3)cc2)c[nH]1 [Example 208, 4-(2-{(1R)-1-[(tert-butoxycarbonyl)amino]butyl}-1H-imidazol-4-yl)-1,1′-biphenyl] | 145.6 °C |
| CCCCOC(=O)NC(C)(C)c1nc(-c2ccc(-c3ccccc3)cc2)c[nH]1 [Example 238, 4-(2-{1-[(butoxycarbonyl)amino]-1-methylethyl}-1H-imidazol-4-yl)-1,1′-biphenyl] | 170 to 172 °C |
| CC(C)COC(=O)NCCc1nc(-c2ccc(-c3ccccc3)cc2)c[nH]1 [Example 239, 4-(2-{2-[(isobutoxycarbonyl)amino]ethyl}-1H-imidazol-4-yl)-1,1′-biphenyl] | 134 to 135 °C |
| CCCCOC(=O)N[C@@H](C)c1nc(-c2ccc(-c3ccccc3)cc2)c[nH]1 [Example 241, 4-(2-{(1S)-1-[(butoxycarbonyl)amino]ethyl}-1H-imidazol-4-yl)-1,1′-biphenyl] | 118 to 122 °C |
| CCCCOC(=O)N[C@H](C)c1nc(-c2ccc(-c3ccccc3)cc2)c[nH]1 [Example 242, 4-(2-{(1R)-1-[(butoxycarbonyl)amino]ethyl}-1H-imidazol-4-yl)-1,1′-biphenyl] | 114 to 116 °C |
